Molecules are shown by their SMILES.

One test addresses T1, GST-TYK2(888-1187) (Homo sapiens, UniProt P29597).
T1 construct: GST-TYK2(888-1187); made in house
T1 sequence (P29597 888-1187): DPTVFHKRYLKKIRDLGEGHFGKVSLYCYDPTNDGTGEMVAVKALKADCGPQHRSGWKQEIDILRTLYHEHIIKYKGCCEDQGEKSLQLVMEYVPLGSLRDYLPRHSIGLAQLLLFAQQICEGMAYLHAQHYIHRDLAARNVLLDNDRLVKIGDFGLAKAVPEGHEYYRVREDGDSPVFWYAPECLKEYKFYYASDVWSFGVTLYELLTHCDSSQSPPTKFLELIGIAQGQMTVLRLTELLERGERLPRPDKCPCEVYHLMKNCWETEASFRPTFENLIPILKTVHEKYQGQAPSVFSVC
The test can be described thus: EPK JAK-family kinases profiling assay (Caliper mobility shift), TYK2. In kind it is biochemical. Conditions: ATP 30 μM, 40 nM kinase. From the text: All four kinases of the JAK-family kinases were used as purified recombinant GST-fusion proteins, containing the active kinase domains. GST-JAK1(866-1154), GST-JAK3(811-1124), and GST-TYK2(888-1187) were expressed and purified by affinity chromatography at the EPK biology unit. GST-JAK2(808-1132) was purchased from Invitrogen (Carlsbad, USA, #4288).
The kinase assays were based on the Caliper mobility shift assay using the LabChip 3000 systems. This technology is similar to capillary electrophoresis and uses charge driven separation of substrate and product in a microfluidic chip.
All kinase reactions were performed in 384 well microtiter plates in a total reaction volume of 18 μl. The assay plates were prepared with 0.1 μl per well of test compound in the appropriate test concentration, as described under the section “preparation of compound dilutions”. The reactions were started by combining 9 μl of substrate mix (consisting of peptide and ATP) with 9 μl of kinase dilution. The reactions were incubated for 60 minutes at 30° C. and stopped by adding 70 μl of stop buffer (100 mM Hepes, 5% DMSO, 0.1% Coating reagent, 10 mM EDTA, 0.015% Brij 35).
Fluorescently labeled synthetic peptides were used as substrates in all reactions. […] Specific assay conditions are described in Table 1:
The terminated reactions were transferred to the Caliper LabChip 3000 reader and the turnover of each reaction was measured by determining the substrate/product ratio.
Test compounds were dissolved in DMSO (10 mM) and transferred into 1.4 mL flat bottom or V-shaped Matrix tubes carrying a unique 2D matrix chip by individual compound hubs. The numbers of these chips were distinctively linked to the individual compound identification numbers. The stock solutions were stored at −20° C. if not used immediately. For the test procedure the vials were defrosted and identified by a scanner whereby a working sheet was generated that guided the subsequent working steps.
Compound dilutions were made in 96 well plates. This format enabled the assay of maximally 40 individual test compounds at 8 concentrations (single points) including 4 reference compounds. The dilution protocol included the production of pre-dilution plates, master plates and assay plates:
Pre-dilution plates: 96 polypropylene well plates were used as pre-dilution plates. A total of 4 pre-dilution plates were prepared including 10 test compounds each on the plate positions A1-A10, one standard compound at A11 and one DMSO control at A12. All dilution steps were done on a HamiltonSTAR robot.
Master plates: 100 μL of individual compound dilutions including standard compound and controls of the 4 “pre-dilution plates” were transferred into a 384 “master plate” including the following concentrations 1′820, 564, 182, 54.6, 18.2, 5.46, 1.82 and 0.546 μM, respectively in 90% of DMSO.
Assay plates: Identical assay plates were then prepared by pipetting 100 nL each of compound dilutions of the master plates into 384-well “assay plates”. […] The preparation of the master plates were handled by the Matrix PlateMate Plus robot and replication of assay plates by the HummingBird robot.

For another test, the target named is T2, GST-JAK1(866-1154) (Homo sapiens, UniProt P23458).
T2 construct: GST-JAK1(866-1154); made in house
T2 sequence (P23458 866-1154): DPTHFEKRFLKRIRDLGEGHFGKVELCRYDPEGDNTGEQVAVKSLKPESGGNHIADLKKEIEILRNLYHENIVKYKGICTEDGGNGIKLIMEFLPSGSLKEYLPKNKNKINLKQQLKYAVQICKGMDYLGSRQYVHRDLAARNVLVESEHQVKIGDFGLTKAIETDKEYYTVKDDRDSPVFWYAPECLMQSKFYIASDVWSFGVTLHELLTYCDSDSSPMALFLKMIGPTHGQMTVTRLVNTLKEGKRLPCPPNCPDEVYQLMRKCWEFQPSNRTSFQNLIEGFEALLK
The test can be described thus: EPK JAK-family kinases profiling assay (Caliper mobility shift), JAK1. The test is classed as biochemical. The settings on record: ATP 40 μM, 50 nM kinase. The procedure, abridged: (§1)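 Turnover was read as substrate/product ratio after mobility-shift capillary-like separation of each reaction, run for 60 min at 30 °C with GST-tagged kinase domain, labelled peptide and ATP, and terminated with EDTA stop buffer.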

Another test concerns the target T3, GST-JAK3(811-1124) (Homo sapiens, UniProt P52333).
T3 construct: GST-JAK3(811-1124); made in house
Briefly: EPK JAK-family kinases profiling assay (Caliper mobility shift), JAK3. The test is classed as biochemical. Conditions: ATP 80 μM, 6 nM kinase. The procedure, abridged: as §1

The next test deals with T4, GST-JAK2(808-1132) (Homo sapiens, UniProt O60674).
T4 construct: GST-JAK2(808-1132); purchased Invitrogen (Carlsbad, USA) #4288
T4 sequence (O60674 808-1132): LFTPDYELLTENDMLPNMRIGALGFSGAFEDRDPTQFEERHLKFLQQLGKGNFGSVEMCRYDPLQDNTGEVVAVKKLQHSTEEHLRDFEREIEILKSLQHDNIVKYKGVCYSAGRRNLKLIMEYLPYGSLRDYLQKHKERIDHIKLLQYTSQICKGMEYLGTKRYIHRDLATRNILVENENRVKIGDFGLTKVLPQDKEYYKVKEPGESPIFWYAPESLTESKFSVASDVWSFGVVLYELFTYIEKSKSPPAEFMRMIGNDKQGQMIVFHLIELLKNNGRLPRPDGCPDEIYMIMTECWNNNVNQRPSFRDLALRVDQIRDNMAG
The test can be described thus: EPK JAK-family kinases profiling assay (Caliper mobility shift), JAK2. The settings on record: ATP 20 μM, 1.8 nM kinase. The test is classed as biochemical. Put shortly:
as §1

Test [1] deals with JAK/STAT pathway (JAK1/JAK2-dependent nuclear translocation of STAT1-GFP). Briefly: Inhibition of the JAK/STAT pathway: IFN-γ stimulated nuclear translocation of STAT1-GFP in HT1080 fibrosarcoma cells. In kind it is cell-based. The settings on record: Homo sapiens, HT-1080; HT1080 STAT1-GFP cells, 100 ng/ml IFN-γ 2 hours, compound added 30 min before; read-out: STAT1translo IC50. The procedure, abridged: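 Readout is the nuclear-minus-cytoplasmic GFP-STAT1 intensity, imaged at 10× using Hoechst-defined nuclear masks over at least 1000 cells/well. Stably transfected HT1080 fibrosarcoma cells were pretreated 30 min with compound (final 0.003–10 μM, 0.1% DMSO) before IFN-γ challenge.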

T3 sequence (P52333 811-1124): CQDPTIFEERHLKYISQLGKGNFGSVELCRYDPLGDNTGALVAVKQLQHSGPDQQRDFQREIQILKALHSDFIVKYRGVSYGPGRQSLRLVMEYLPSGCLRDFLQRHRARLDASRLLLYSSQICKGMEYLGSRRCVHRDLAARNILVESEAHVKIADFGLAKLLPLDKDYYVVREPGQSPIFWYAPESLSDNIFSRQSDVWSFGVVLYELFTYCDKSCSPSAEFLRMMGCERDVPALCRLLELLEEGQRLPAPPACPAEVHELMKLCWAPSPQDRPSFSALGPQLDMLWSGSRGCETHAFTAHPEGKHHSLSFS

For orientation: IC50 means the point on the concentration scale where inhibition reaches its midpoint. Take `COCCOc1ccc(-c2cnc3cccc(-c4ccc(CN5CCS(=O)(=O)CC5)c(C)c4)c3n2)cc1OC` [Example 52, 8-[4-(1,1-Dioxido-thiomorpholin-4-ylmethyl)-3-methyl-phenyl]-2-[3-methoxy-4-(2-methoxy-ethoxy)-phenyl]-quinoxaline]: the IC50 came to 985 nM at GST-TYK2(888-1187); 97.5 nM at GST-JAK1(866-1154); 1100 nM on GST-JAK3(811-1124); 32 nM at GST-JAK2(808-1132); 2950 nM in test [1].

On to `COc1cc(-c2cnc3cccc(-c4ccc(CN5CCS(=O)(=O)CC5)c(F)c4)c3n2)ccc1OCCCN1CCOCC1` [Example 85, 8-[4-(1,1-Dioxido-thiomorpholin-4-ylmethyl)-3-fluoro-phenyl]-2-[3-methoxy-4-(3-morpholin-4-yl-propoxy)-phenyl]-quinoxaline], for which the IC50 on GST-TYK2(888-1187) is 115 nM; at GST-JAK1(866-1154) it was 12.5 nM; at GST-JAK3(811-1124), 220 nM; on GST-JAK2(808-1132), 3.25 nM; in test [1] it was 240 nM.

As for `Cc1cc(-c2cnc3cccc(-c4cc(F)c(CN5CCOCC5)c(F)c4)c3n2)ccc1C(=O)N1CCC(N(C)C)CC1` [Example 101, {4-[8-(3,5-Difluoro-4-morpholin-4-ylmethyl-phenyl)-quinoxalin-2-yl]-2-methyl-phenyl}-(4-dimethylamino-piperidin-1-yl)-methanone], the IC50 at GST-TYK2(888-1187) stood at 1450 nM; on GST-JAK1(866-1154), 575 nM; on GST-JAK3(811-1124) it was 1020 nM; at GST-JAK2(808-1132) it was 14 nM.

Regarding `COCCN1CCC(n2cc(-c3cnc4cccc(-c5cc(F)c(CN6CCOCC6)c(F)c5)c4n3)cn2)CC1` [Example 123, 8-(3,5-Difluoro-4-morpholin-4-ylmethyl-phenyl)-2-{1-[1-(2-methoxy-ethyl)-piperidin-4-yl]-1H-pyrazol-4-yl}-quinoxaline], the 50% inhibitory concentration (IC50) is 170 nM on GST-TYK2(888-1187); 135 nM on GST-JAK1(866-1154); 1950 nM at GST-JAK3(811-1124); 5 nM on GST-JAK2(808-1132); 180 nM in test [1].

Regarding `Cc1cc(-c2cnc3cccc(-c4cc(F)c(CN5CCS(=O)(=O)CC5)c(F)c4)c3n2)ccc1C(=O)N1CCOCC1` [Example 64, (4-{8-[4-(1,1-Dioxido-thiomorpholin-4-ylmethyl)-3,5-difluoro-phenyl]-quinoxalin-2-yl}-2-methyl-phenyl)-morpholin-4-yl-methanone], the IC50 on GST-TYK2(888-1187) amounted to 165 nM; at GST-JAK1(866-1154), 68 nM; at GST-JAK3(811-1124) it was 290 nM; at GST-JAK2(808-1132), 4.95 nM; in test [1], 46.5 nM.

Regarding `CN1CCN(c2ccc(-c3cnc4cccc(-c5cc(F)c(CN6CCOCC6)c(F)c5)c4n3)cn2)CC1` [Example 107, 8-(3,5-Difluoro-4-morpholin-4-ylmethyl-phenyl)-2-[6-(4-methyl-piperazin-1-yl)-pyridin-3-yl]-quinoxaline], the IC50 on GST-TYK2(888-1187) came to 2950 nM; on GST-JAK1(866-1154), 1350 nM; on GST-JAK3(811-1124), 9800 nM; at GST-JAK2(808-1132), 95.5 nM; in test [1], 2470 nM.

Regarding `Fc1cc(-c2cccc3ncc(-c4cnn(C5CNC5)c4)nc23)cc(F)c1CN1CCOCC1` [Example 116, 2-(1-Azetidin-3-yl-1H-pyrazol-4-yl)-8-(3,5-difluoro-4-morpholin-4-ylmethyl-phenyl)-quinoxaline], the IC50 at GST-TYK2(888-1187) came to 437 nM; at GST-JAK1(866-1154) it was 243 nM; at GST-JAK3(811-1124), 2900 nM; on GST-JAK2(808-1132) it was 8 nM.

In the case of `CN1CCN(c2cccc(-c3cnc4cccc(-c5cc(F)c(CN6CCS(=O)(=O)CC6)c(F)c5)c4n3)c2)CC1` [Example 170, 8-[4-(1,1-Dioxido-thiomorpholin-4-ylmethyl)-3,5-difluoro-phenyl]-2-[3-(4-methyl-piperazin-1-yl)-phenyl]-quinoxaline], the IC50 amounted to 140 nM at GST-TYK2(888-1187), 21 nM at GST-JAK1(866-1154), 4 nM on GST-JAK2(808-1132) and 296 nM in test [1].

In the case of `Fc1cc(-c2cccc3ncc(-c4cnn(C5CCNCC5)c4)nc23)ccc1CN1CCOCC1` [Example 145, 8-(3-Fluoro-4-morpholin-4-ylmethyl-phenyl)-2-(1-piperidin-4-yl-1H-pyrazol-4-yl)-quinoxaline], the 50% inhibitory concentration (IC50) at GST-TYK2(888-1187) stood at 300 nM; at GST-JAK1(866-1154), 250 nM; at GST-JAK2(808-1132) it was 10 nM; in test [1], 685 nM.

As to `Cc1cc(CN2CCS(=O)(=O)CC2)ccc1-c1cccc2ncc(-c3cnn(C4CCNCC4)c3)nc12` [Example 149, 8-[4-(1,1-Dioxido-thiomorpholin-4-ylmethyl)-2-methyl-phenyl]-2-(1-piperidin-4-yl-1H-pyrazol-4-yl)-quinoxaline], the IC50 on GST-TYK2(888-1187) is 900 nM; at GST-JAK1(866-1154) it was 650 nM; on GST-JAK2(808-1132), 51 nM; in test [1] it was 9560 nM.

Consider `COCCOC(=O)N1CCC(n2cc(-c3cnc4cccc(-c5cc(F)c(CN6CCOCC6)c(F)c5)c4n3)cn2)CC1` [Example 122, 4-{4-[8-(3,5-Difluoro-4-morpholin-4-ylmethyl-phenyl)-quinoxalin-2-yl]-pyrazol-1-yl}-piperidine-1-carboxylic acid 2-methoxy-ethyl ester], for which the IC50 on GST-TYK2(888-1187) was 540 nM; on GST-JAK1(866-1154), 475 nM; on GST-JAK3(811-1124) it was 3250 nM; on GST-JAK2(808-1132) it was 9.35 nM.

For `O=S1(=O)CCN(Cc2ccc(-c3cccc4ncc(-c5cnn(C6CCNCC6)c5)nc34)cc2)CC1` [Example 148, 8-[4-(1,1-Dioxido-thiomorpholin-4-ylmethyl)-phenyl]-2-(1-piperidin-4-yl-1H-pyrazol-4-yl)-quinoxaline], the IC50 is 110 nM at GST-TYK2(888-1187), 73 nM at GST-JAK1(866-1154), 3.4 nM on GST-JAK2(808-1132) and 730 nM in test [1].

In the case of `COC(=O)N1CCC(n2cc(-c3cnc4cccc(-c5cc(F)c(CN6CCOCC6)c(F)c5)c4n3)cn2)CC1` [Example 130, 4-{4-[8-(3,5-Difluoro-4-morpholin-4-ylmethyl-phenyl)-quinoxalin-2-yl]-pyrazol-1-yl}-piperidine-1-carboxylic acid methyl ester], the IC50 on GST-TYK2(888-1187) is 200 nM; at GST-JAK1(866-1154) it was 150 nM; at GST-JAK2(808-1132) it was 3.4 nM; in test [1], 163 nM.

With `Fc1cc(-c2cccc3ncc(-c4cnn(CC5CCNCC5)c4)nc23)cc(F)c1CN1CCOCC1` [Example 133, 8-(3,5-Difluoro-4-morpholin-4-ylmethyl-phenyl)-2-(1-piperidin-4-ylmethyl-1H-pyrazol-4-yl)-quinoxaline], the 50% inhibitory concentration (IC50) at GST-TYK2(888-1187) came to 750 nM; at GST-JAK1(866-1154), 550 nM; at GST-JAK2(808-1132), 5.4 nM; in test [1], 840 nM.
